Test results published in patent US20260226049A1, “NITROGEN-CONTAINING HETEROCYCLIC COMPOUND, PREPARATION METHOD THEREFOR, AND USE THEREOF” (BIVISION PHARMACEUTICALS, INC, priority 2023, published 2026).

Molecular target: T1, recombinant human prolyl oligopeptidase (PREP) (Homo sapiens, UniProt P48147)
T1 sequence (P48147 1-710): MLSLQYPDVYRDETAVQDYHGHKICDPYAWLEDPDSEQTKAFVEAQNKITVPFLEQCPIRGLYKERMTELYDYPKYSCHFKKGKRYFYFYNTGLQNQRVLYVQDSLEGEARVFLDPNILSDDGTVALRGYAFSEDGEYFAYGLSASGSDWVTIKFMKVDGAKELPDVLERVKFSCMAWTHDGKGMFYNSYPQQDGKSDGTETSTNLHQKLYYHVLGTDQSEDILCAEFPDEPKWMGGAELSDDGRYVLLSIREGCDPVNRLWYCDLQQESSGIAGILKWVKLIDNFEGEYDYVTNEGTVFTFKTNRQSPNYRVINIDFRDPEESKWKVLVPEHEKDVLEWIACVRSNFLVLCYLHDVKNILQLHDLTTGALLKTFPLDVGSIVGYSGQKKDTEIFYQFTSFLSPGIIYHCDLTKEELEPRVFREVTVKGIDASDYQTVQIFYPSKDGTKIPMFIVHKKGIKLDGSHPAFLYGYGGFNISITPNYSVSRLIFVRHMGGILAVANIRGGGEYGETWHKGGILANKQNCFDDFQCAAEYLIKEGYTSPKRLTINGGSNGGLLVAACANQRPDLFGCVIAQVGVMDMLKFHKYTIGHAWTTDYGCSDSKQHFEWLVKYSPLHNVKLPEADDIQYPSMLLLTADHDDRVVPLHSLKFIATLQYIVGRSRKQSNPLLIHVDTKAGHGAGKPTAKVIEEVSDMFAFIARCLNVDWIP
Experiment: Selective assay, protease inhibition (PREP)
Type: biochemical
Conditions: substrate Z-Gly-Pro-AMC
Experimental: The specificity of the synthesized compounds against recombinant human dipeptidyl peptidase IV (DPPIV), fibroblast activation protein (FAP), or prolyl oligopeptidase (PREP) was expressed by their half-maximal inhibitory concentration (IC50) against the proteases.
1) The synthesized compound was dissolved in DMSO to a final concentration of 100 mM.
c) For PREP assay: The test compound was diluted to a 1 mM solution using a 140 mM NaCl buffer at pH 8.0.
2) The prepared 1 mM test compound solution was serially diluted (1:10) into a row of a 96-well plate using the corresponding buffer mentioned above.
3) The substrate was prepared as a DMSO stock solution (FAP and PREP: 2.5 mM Z-Gly-Pro-AMC (VWR, Cat. No. I-1145.0050BA) in DMSO; DPPIV: 100 mM Gly-Pro-AMC (VWR, Cat. No. 100042-646) in DMSO), and subsequently the substrate stock solution was diluted 20-fold using the corresponding buffer mentioned above.
4) The enzyme was diluted into the appropriate assay buffer. The final concentrations of DPPIV, FAP, and PREP were […], respectively. To each required well in columns 2-10, 180 μL was added separately. Column 1 (A, B, C) was prepared with 200 μL of the appropriate assay buffer as a control. Column 1 (D, E, F, G, H) was prepared using 20 μL of appropriate assay buffer and 180 μL of enzyme as an inhibitor-free control. […]
7) Fluorescence was measured at λex: 380, λem: 460. […]

N#C[C@@H]1CC(F)(F)CN1C(=O)CNC(=O)c1cccc2c1CCN(C(=O)CCC(=O)NCCNC(=O)CCC(C(=O)O)N1CCN(CC(=O)O)CCN(CC(=O)O)CCN(CC(=O)O)CC1)C2 (stereo partly shown) [JHH5]
IC50: > 1000 nM
